Here are results for two molecules from patent US6335339B1, “Triazine antiviral compounds” (Scriptgen Pharmaceuticals, Inc., priority 1998, dated 2002).

The subject of one assay is HIV derived RRE RNA. In words: heterologous hybridization inhibition assay with RRE RNA. The format is binding. The note with it: radiolabeled RRE RNA, rRNA competitor.
The test system of the next assay is HBV. Briefly: antiviral assay in 2.2.15 cells producing HBV (virion DNA dot blot). The format is cell-based, Hepatitis B virus. As to conditions: extra-cellular virus reduced by 50%; 2.2.15 cells, 9 days treatment; read-out: Antiviral EC50; call rule not given here. From the text:
Several cell lines and cell culture assays have been developed to identify potential therapeutics effective against chronic HBV infection. One of these cell lines, 2.2.15, has been used in a standardized assay that has repeatedly proven to be an accurate model of chronic cellular HBV replication and a predictive model of antiviral response for chronic hepadnaviral infection in vivo. 2.2.15 cells contain copies of the complete HBV genome integrated into the cell's genome, and 2.2.15 cells are not susceptible to infection by HBV. (Sells, M. A. et al., J. Virol. 62 (8): 2836-2844 (1988)). These cells express HBV genes producing complete HBV particles capable of infecting chimpanzees (Acs, G. et al., Proc. Natl. Acad. Sci. USA 84 (13): 4641-4644 (1987)). Briefly, 2.2.15 cells are cultured and pretreated with a test compound for about 9 days, at which point the media are harvested and subjected to dot-blot hybridization to detect HBV virion DNA.
The antiviral activity of the compounds of the present invention is measured by the methods described in Korba and Gering, Antiviral Res. 19: 55-70 (1992).
This assay format is well suited to the screening of test compounds for potential antiviral activity. The assay provides a threshold assessment of antiviral activity by measuring (i) the levels of HBV virion release from the cells and (ii) cytotoxicity. Two rows of cells were used for each compound, and 4 rows for the assay controls (two for untreated, and two for positive antiviral control, e.g., 3TC). After incubating in the presence of test compound for 9 days, the media were harvested, transferred to 96-well U-bottom plates, and centrifuged. The supernatants were transferred to tubes for dot blot hybridization analysis of HBV virion DNA. The medium was aspirated off of the toxicity plates and discarded. Toxicity plates were then incubated with neutral red dye (MTT can also be used if preferred), washed with DPBS, developed with an acetic acid-ethanol solution, and assayed in a plate reader.
1. 2.2.15 cells were seeded into 96-well, flat bottom tissue culture plates as described above. Duplicate plates were used for the antiviral treatments for each test compound (up to 8 compounds per pair of plates); after three to four days, cells were confluent and medium was yellow in color; the medium was removed and replaced with 100 μl RP2 24 hours before the beginning of drug treatment.
i) For each compound, a total of 4 concentrations were examined; this required 9 sets of 4 sterile, 1.1 ml minitubes (36 tubes per compound). Into the first tube of each set, sufficient compound was aliquoted to make up 700 μl (for 10-fold dilution series) or 980 μl (for 3.3-fold dilution series) of the highest test concentration; the other tubes were left empty.
i) For a 10-fold dilution series: to the first (compound containing) tube was added 700 μl (175 μl×4). 630 μl (210 μl×3) RP2 culture medium was added to the remaining 3 tubes. The first tube was mixed by pipeting up and down with a pipetman (a multichannel pipetman permits the simultaneous processing of multiple compounds). 70 μl of test compound-containing medium were serially transferred from the first tube to the other 3 tubes, taking care to thoroughly mix each tube before transferring medium;
b) 100 μl of each dilution of every compound was added to each of 6 wells (3 wells per plate) using the configuration listed below as an example. The lowest concentration was added first, and the same tips were used to add the higher concentrations. The untreated cells received 100 μl RP2 per well (untreated cells have to be carried on only one pair of the antiviral assay plates).
c) Treatments were repeated daily for 9 days. For the last day of treatment, and additional 200 μl RP2 were added to each well of the antiviral assay plates after the wells are treated with the test compounds (a total of 300 μl medium per well).
6. […]

The structures appear in SMILES notation.

`COc1c(C=NNc2nc(N3CCCC3)nc(N3CCOCC3)n2)cccc1[N+](=O)[O-]` [Compound 193]: the “RRE + rRNA IC50 (μM)” value in the assay with HIV derived RRE RNA is “inactive”. The 50% effective concentration (EC50) with HBV was over 100000 nM.

Turning to `Cc1[nH]c2ccccc2c1C=NNc1nc(Nc2ccccc2)nc(Nc2ccc([N+](=O)[O-])cc2)n1` [Compound 6], in the assay with HIV derived RRE RNA, the “RRE + rRNA IC50 (μM)” value was “inactive”. Also, the EC50 in the assay on HBV stood at 300 nM.

By EC50 is commonly meant the midpoint of the concentration-response curve.
